In patent US11008572B2, “Methods and compositions for modulating splicing” (SKYHAWK THERAPEUTICS, INC., priority 2017, dated 2021):
Like-named read-outs stand apart in the source and are kept apart here.

Tests used:
A-673 cells = experiment: Cell viability, crystal violet staining; format: cell-based
Protocol: To measure cell viability, cells were plated in 96-well plastic tissue culture plates at a density of 5×10^3 cells/well. Twenty-four hours after plating, cells were treated with various SMSMs. After 72 hours, the cell culture media were removed and plates were stained with […] of a solution containing 0.5% crystal violet and 25% methanol, rinsed with deionized water, dried overnight, and resuspended in […] citrate buffer (0.1 M sodium citrate in 50% ethanol) to assess plating efficiency. Intensity of crystal violet staining, assessed at 570 nm and quantified using a Vmax Kinetic Microplate Reader and Softmax software (Molecular Devices Corp., Menlo Park, Calif.), were directly proportional to cell number. Data were normalized to vehicle-treated cells and were presented as the mean±SE from representative experiments. SMSMs that are effective were determined for various cells lines.
A-673 cell viability […], splicing (IC50) and brain AUC/Plasma AUC of SMSMs were determined. As shown in the tables below SMSMs had high CNS exposure.

[1] = test system: FOXM1^A2 mRNA and FOXM1^BC mRNA; experiment: Splicing assay (FOXM1), qPCR of isoform mRNAs; format: cell-based
Protocol: Various cells lines were treated with the SMSMs described herein. RNA was then isolated, cDNA synthesized, qPCR performed and the levels of various mRNA targets of the SMSMs were determined. In some instances, RNA was isolated, cDNA synthesized, qPCR performed and the levels of mRNA isoforms in the various cell samples were determined.
On the day of the experiment, a 96-well plate was seeded with the cell lines of interest. The cells were diluted with full growth media to a concentration of 2.0×10^5 cells/mL and 100 μL of cells were added to each well (20,000 cells per well). The cells were treated with a compound immediately after plating.
The compounds were then added to the cell plate using the HP compound dispenser. In the initial experiment, a top concentration of 10 μM and an 8 point 4-fold dilution scheme was used. The stock compounds were made at a concentration of 5 mM, and the DMSO concentration was set to 0.2%. DMSO was used to normalize all the compound-containing wells and the untreated cells.
The treated cells were incubated at 37° C. in a 5% CO2 incubator for the desired amount of time. Plates were placed in a plastic bag with a wet paper towel to prevent evaporation.
RNA was isolated using the Cells to CT kit (ThermoFisher, AM1728). The cells were washed once with 100 μL cold PBS. 50 μL of lysis buffer was added to each well/tube (49.5 μL lysis buffer+0.5 μL DNase I per well/tube). The lysis reaction was mixed and incubated at room temperature for 5 minutes. 5 μL of stop solution was added directly into each cell lysis reaction and mixed by pipetting up and down 5 times. The plates/tubes were incubated at room temperature for 2 minutes then placed on ice if the cDNA synthesis was to be performed immediately. Otherwise, the plates/tubes were stored at −80° C. cDNA synthesis reactions were then performed. Reverse Transcription (RT) Master mix was prepared according to the table below.
40 μL RT master mix was added to PCR tubes or plate wells. 10 μL of RNA was added to each tube/well. The RT thermal cycler program was then run and tubes or plate wells were incubated at 37° C. for 1 hour, then at 95° C. for 5 minutes to deactivate the enzyme.
The qPCR was performed using a QuantStudio 6 instrument (ThermoFisher) and the following cycling conditions and according to the tables below. All samples and standards were analyzed in triplicate. Cycle 1: 2 minutes at 50° C. Cycle 2: 10 minutes at 95° C. Cycle 3 (repeat 40 times): 15 seconds at 95° C., 1 minute at 60° C.
The determined isoform 2and isoform 1quantities were then be used to determine the isoform 2: […] at the various compound concentrations. The PPIA quantities were used in the normalization to account of cell proliferation effects of the compounds.
The dilution necessary to make the top standard is calculated. A top concentration 200,000,000 copies/μL of the stock plasmid was prepared in TE buffer. A series of 10-fold dilutions, also in TE, were then made. A total of 5 μL of each standard was used in a qPCR well to generate samples containing 109 copies, […], 10^7copies, 10^6 copies, 10^5 copies, 10^4 copies, 10^3 copies, 10^2 copies, 10^1copies, and 0 copies.
An assay to measure the FOXM1^A2 mRNA and FOXM1^BC mRNA, or MADD^WT (isoform 4) mRNA and MADD^Ex16 (isoform 3) mRNA, or MAPTau^4R mRNA and MAPTau^3R mRNA simultaneously in cell wells was performed. The RNA values were measured relative to DMSO control and also included a housekeeping gene, PPIA to ensure data was consistent. The mRNA values were measured after 24 hours of incubation with the SMSM compounds.

[2] = Homo sapiens, A673, cell viability, read-out: A-673 IC50 (nM) Cell viability
[3] = Homo sapiens, A673, cell viability, read-out: A-673 IC50 (nM), Cell viability

Compound: COc1cc(-c2ccc(-c3ccc(N(C)[C@H]4C[C@]5(C)CC[C@](C)(C4)N5)nn3)c(O)c2)ccn1 [compound 173, 2-(6-(((1R,3s,5S)-1,5-dimethyl-8-azabicyclo[3.2.1]octan-3-yl)(methyl)amino)pyridazin-3-yl)-5-(2-methoxypyridin-4-yl)phenol]
- IC50 (A-673 cells; [2]): < 10 nM

Compound: CN(C)C(=O)c1cc2cc(O)c(-c3ccc(N(C)[C@@H]4C[C@H]5CCC[C@@H](C4)N5)nn3)cc2o1 [compound 295, 6-(6-(((1R,3s,5S)-9-azabicyclo[3.3.1]nonan-3-yl)(methyl)amino)pyridazin-3-yl)-5-hydroxy-N,N-dimethylbenzofuran-2-carboxamide]
- IC50 (A-673 cells; [3]): 251 to 500 nM

Compound: CN(C)C(=O)c1cc2cc(-c3ccc(N(C)[C@@H]4C[C@H]5CCC[C@@H](C4)N5)nn3)c(O)cc2o1 [compound 298, 5-(6-(((1R,3s,5S)-9-azabicyclo[3.3.1]nonan-3-yl)(methyl)amino)pyridazin-3-yl)-6-hydroxy-N,N-dimethylbenzofuran-2-carboxamide]
- IC50 (A-673 cells; [3]): 10 to 100 nM

Compound: CN(c1ccc(-c2ccc(-c3cn[nH]c3)cc2O)nn1)[C@H]1C[C@]2(C)COC[C@](C)(C1)N2 [compound 156, 2-(6-(((1R,5S,7r)-1,5-dimethyl-3-oxa-9-azabicyclo[3.3.1]nonan-7-yl)(methyl)amino)pyridazin-3-yl)-5-(1H-pyrazol-4-yl)phenol]
- IC50 (A-673 cells; [2]): 10 to 100 nM

Compound: CN(c1ccc(-c2ccc(-n3cc(C#N)cn3)cc2O)nn1)[C@H]1C[C@]2(C)CC[C@](C)(C1)N2 [compound 200, 1-(4-(6-(((1R,3s,5S)-1,5-dimethyl-8-azabicyclo[3.2.1]octan-3-yl)(methyl)amino)pyridazin-3-yl)-3-hydroxyphenyl)-1H-pyrazole-4-carbonitrile]
- IC50 (A-673 cells; [2]): 101 to 250 nM

Compound: CN(c1ccc(-c2ccc(-c3ccn(C)c(=O)n3)cc2O)nn1)[C@H]1C[C@]2(C)CCC[C@](C)(C1)N2 [compound 305, 4-(4-(6-(((1R,3s,5S)-1,5-dimethyl-9-azabicyclo[3.3.1]nonan-3-yl)(methyl)amino)pyridazin-3-yl)-3-hydroxyphenyl)-1-methylpyrimidin-2(1H)-one]
- IC50 (A-673 cells; [3]): 101 to 250 nM

Compound: CN(c1ccc(-c2ccc(-c3cc(O)nc(F)c3)cc2O)nn1)[C@H]1C[C@]2(C)CC[C@](C)(C1)N2 [compound 190, 4-(4-(6-(((1R,3s,5S)-1,5-dimethyl-8-azabicyclo[3.2.1]octan-3-yl)(methyl)amino)pyridazin-3-yl)-3-hydroxyphenyl)-6-fluoropyridin-2-ol]
- IC50 (A-673 cells; [2]): 101 to 250 nM

Compound: CN(c1ccc(-c2cc3ccc(OC(F)F)cc3cc2O)nn1)[C@@H]1C[C@H]2CC[C@@H](C1)N2 [compound 166, 3-(6-(((1R,3s,5S)-8-azabicyclo[3.2.1]octan-3-yl)(methyl)amino)pyridazin-3-yl)-7-(difluoromethoxy)naphthalen-2-ol]
- IC50 (A-673 cells; [2]): 501 to 1000 nM

Compound: CN(c1ccc(-c2ccc(-c3cn[nH]c3)cc2O)nn1)[C@@H]1C[C@]2(C)COC[C@](C)(C1)N2 [compound 157, 2-(6-(((1R,5S,7s)-1,5-dimethyl-3-oxa-9-azabicyclo[3.3.1]nonan-7-yl)(methyl)amino)pyridazin-3-yl)-5-(1H-pyrazol-4-yl)phenol]
- IC50 (A-673 cells; [2]): > 1000 nM

Compound: CN(c1ccc(-c2ccc(-c3cc(F)nc(F)c3)cc2O)nn1)[C@H]1C[C@]2(C)CC[C@](C)(C1)N2 [compound 204, 5-(2,6-difluoropyridin-4-yl)-2-(6-(((1R,3s,5S)-1,5-dimethyl-8-azabicyclo[3.2.1]octan-3-yl)(methyl)amino)pyridazin-3-yl)phenol]
- IC50 (A-673 cells; [2]): 100 to 500 nM

Compound: Oc1cc(-c2cn[nH]c2)ccc1-c1ccc(O[C@@H]2C[C@H]3CCC[C@@H](C2)N3)nn1 [compound 276, 2-(6-(((1R,3s,5S)-9-azabicyclo[3.3.1]nonan-3-yl)oxy)pyridazin-3-yl)-5-(1H-pyrazol-4-yl)phenol]
- IC50 (A-673 cells; cell viability, read-out: A-673 IC50 (nM), Cell viability): 101 to 250 nM

Compound: Cc1cc(-c2ccc(N(C)[C@H]3C[C@]4(C)CC[C@](C)(C3)N4)nn2)c(O)cc1-c1ccn(C)c(=O)c1 [compound 178, 4-(4-(6-(((1R,3s,5S)-1,5-dimethyl-8-azabicyclo[3.2.1]octan-3-yl)(methyl)amino)pyridazin-3-yl)-5-hydroxy-2-methylphenyl)-1-methylpyridin-2(1H)-one]
- IC50 (A-673 cells; [2]): 251 to 500 nM

Compound: CCN(c1ccc(-c2cc(F)c(-c3cn[nH]c3)cc2O)nn1)[C@H]1C[C@]2(C)CC[C@](C)(C1)N2 [compound 202, 2-(6-(((1R,3s,5S)-1,5-dimethyl-8-azabicyclo[3.2.1]octan-3-yl)(ethyl)amino)pyridazin-3-yl)-4-fluoro-5-(1H-pyrazol-4-yl)phenol]
- IC50 (A-673 cells; [2]): 10 to 100 nM

Compound: C[C@]12CC[C@](C)(C[C@@H](N(c3ccc(-c4ccc(-c5cn[nH]c5)cc4O)nn3)C3CC3)C1)N2 [compound 302, 2-(6-(cyclopropyl((1R,3s,5S)-1,5-dimethyl-8-azabicyclo[3.2.1]octan-3-yl)amino)pyridazin-3-yl)-5-(1H-pyrazol-4-yl)phenol]
- IC50 (A-673 cells; [3]): 10 to 100 nM

Compound: CN(c1ccc(-c2ccc(-c3ccn(C)c(=O)c3)cc2O)nn1)[C@H]1C[C@]2(C)CCC[C@](C)(C1)N2 [compound 259, 4-(4-(6-(((1R,3s,5S)-1,5-dimethyl-9-azabicyclo[3.3.1]nonan-3-yl)(methyl)amino)pyridazin-3-yl)-3-hydroxyphenyl)-1-methylpyridin-2(1H)-one]
- IC50 (A-673 cells; [3]): < 10 nM
- IC50 (A-673 cells; Homo sapiens, A673, read-out: A-673 cell viability (IC50)): < 1 nM

Compound: CN(c1ccc(-c2ccc(-c3cnn(C(F)F)c3)cc2O)nn1)[C@H]1C[C@]2(C)CC[C@](C)(C1)N2 [compound 179, 5-(1-(difluoromethyl)-1H-pyrazol-4-yl)-2-(6-(((1R,3s,5S)-1,5-dimethyl-8-azabicyclo[3.2.1]octan-3-yl)(methyl)amino)pyridazin-3-yl)phenol]
- IC50 (A-673 cells; [2]): 10 to 100 nM

Compound: Oc1cc(-c2cn[nH]c2)ccc1-c1ccc(N2CCC23CCNCC3)nn1 [compound 132, 2-(6-(1,7-diazaspiro[3.5]nonan-1-yl)pyridazin-3-yl)-5-(1H-pyrazol-4-yl)phenol]
- IC50 (A-673 cells; [2]): > 1000 nM

Compound: COc1cc(-c2cc(O)c(-c3ccc(N(C)[C@H]4C[C@]5(C)CC[C@](C)(C4)N5)nn3)cc2F)cnn1 [compound 213, 2-(6-(((1R,3s,5S)-1,5-dimethyl-8-azabicyclo[3.2.1]octan-3-yl)(methyl)amino)pyridazin-3-yl)-4-fluoro-5-(6-methoxypyridazin-4-yl)phenol]
- IC50 (A-673 cells; [2]): < 10 nM

Compound: 2-(6-(((1R,3s,5S)-1,5-dimethyl-8-azabicyclo[3.2.1]octan-3-yl)(methyl)amino)pyridazin-3-yl)-5-(4-methyl-1H-imidazol-1-yl)phenol [compound 177]
- EC50 ([1]; FoxM1 A mRNA increase (exon excluded), read-out: Splice EC50 (nM) FoxM1 A mRNA increase (exon excluded)): < 10 nM
- IC50 ([1]; FoxM1 BC mRNA decrease (exon included), read-out: Splice IC50 (nM) FoxM1 BC mRNA decrease (exon included)): < 10 nM
